47 compounds from patent US8889875B2, “Pyridyl derivatives as CFTR modulators” (Vertex Pharmaceuticals Incorporated, priority 2008, dated 2014) can be followed below.

In this test the target is T1, ΔF508-CFTR (Homo sapiens, UniProt P13569, DEL508-508).
T1 construct: expressed in transfected cells
T1 sequence (P13569 with tags, fused parts or gaps DEL508-508): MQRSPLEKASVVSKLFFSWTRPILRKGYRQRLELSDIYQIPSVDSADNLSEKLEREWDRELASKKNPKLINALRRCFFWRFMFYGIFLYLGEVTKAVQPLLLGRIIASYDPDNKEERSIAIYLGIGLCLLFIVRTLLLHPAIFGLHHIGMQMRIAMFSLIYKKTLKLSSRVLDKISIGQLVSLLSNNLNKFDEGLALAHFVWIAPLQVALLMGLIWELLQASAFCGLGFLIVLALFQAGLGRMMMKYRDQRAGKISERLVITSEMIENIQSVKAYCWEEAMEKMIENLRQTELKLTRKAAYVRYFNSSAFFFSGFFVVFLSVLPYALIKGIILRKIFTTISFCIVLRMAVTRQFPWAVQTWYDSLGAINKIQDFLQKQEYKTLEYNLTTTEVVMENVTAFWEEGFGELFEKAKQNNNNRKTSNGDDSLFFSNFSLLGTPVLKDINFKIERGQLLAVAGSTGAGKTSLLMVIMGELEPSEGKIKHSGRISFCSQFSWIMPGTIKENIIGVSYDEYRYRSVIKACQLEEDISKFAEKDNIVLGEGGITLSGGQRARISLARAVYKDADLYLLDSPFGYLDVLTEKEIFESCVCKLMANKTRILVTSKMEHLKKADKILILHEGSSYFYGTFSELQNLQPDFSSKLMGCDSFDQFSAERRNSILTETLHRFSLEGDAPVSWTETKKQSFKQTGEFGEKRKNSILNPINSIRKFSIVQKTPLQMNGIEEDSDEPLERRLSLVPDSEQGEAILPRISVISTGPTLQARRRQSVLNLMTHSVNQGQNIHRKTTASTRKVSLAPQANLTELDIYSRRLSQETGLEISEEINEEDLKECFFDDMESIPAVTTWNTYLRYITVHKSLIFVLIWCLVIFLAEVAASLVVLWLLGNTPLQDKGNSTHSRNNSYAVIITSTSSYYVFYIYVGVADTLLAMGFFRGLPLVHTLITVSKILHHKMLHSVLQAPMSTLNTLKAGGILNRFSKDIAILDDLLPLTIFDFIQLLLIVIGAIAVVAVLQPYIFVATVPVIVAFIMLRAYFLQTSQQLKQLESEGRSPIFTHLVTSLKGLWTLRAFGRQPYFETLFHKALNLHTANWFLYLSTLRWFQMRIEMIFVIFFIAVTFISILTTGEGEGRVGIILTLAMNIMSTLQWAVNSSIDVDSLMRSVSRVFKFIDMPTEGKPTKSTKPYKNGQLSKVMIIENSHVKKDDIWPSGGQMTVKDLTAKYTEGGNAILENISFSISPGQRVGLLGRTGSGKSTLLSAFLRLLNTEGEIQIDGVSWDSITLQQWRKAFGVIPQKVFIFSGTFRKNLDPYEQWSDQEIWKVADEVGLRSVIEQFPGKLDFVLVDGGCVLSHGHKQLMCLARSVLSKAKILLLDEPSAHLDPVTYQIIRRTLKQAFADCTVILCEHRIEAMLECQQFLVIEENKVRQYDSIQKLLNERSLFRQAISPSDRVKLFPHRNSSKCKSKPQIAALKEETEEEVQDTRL
The test is described as follows: Membrane potential optical assay, identification of correction compounds (single-addition HTS format). The note with it: PercentActivity; ΔF508-CFTR in NIH3T3 mouse fibroblasts; 16-24 hrs with compound; 10 μM forskolin and 20 μM genistein; read-out: BinnedMaxEfficacy. The test is classed as cell-based. The text has this: Membrane Potential Optical Methods for Assaying ΔF508-CFTR Modulation Properties of Compounds.
The assay utilizes fluorescent voltage sensing dyes to measure changes in membrane potential using a fluorescent plate reader (e.g., FLIPR III, Molecular Devices, Inc.) as a readout for increase in functional ΔF508-CFTR in NIH 3T3 cells. The driving force for the response is the creation of a chloride ion gradient in conjunction with channel activation by a single liquid addition step after the cells have previously been treated with compounds and subsequently loaded with a voltage sensing dye.
To identify small molecules that correct the trafficking defect associated with ΔF508-CFTR; a single-addition HTS assay format was developed. Assay Plates containing cells are incubated for ˜2-4 hours in tissue culture incubator at 37° C., 5% CO2, 90% humidity. Cells are then ready for compound exposure after adhering to the bottom of the assay plates.
The cells were incubated in serum-free medium for 16-24 hrs in tissue culture incubator at 37° C., 5% CO2, 90% humidity in the presence or absence (negative control) of test compound. The cells were subsequently rinsed 3× with Krebs Ringers solution and loaded with a voltage sensing redistribution dye. To activate ΔF508-CFTR, 10 μM forskolin and the CFTR potentiator, genistein (20 μM), were added along with Cl^−-free medium to each well. The addition of Cl^−-free medium promoted Cl^− efflux in response to ΔF508-CFTR activation and the resulting membrane depolarization was optically monitored using voltage sensor dyes.
Bath Solution #1: (in mM) NaCl 160, KCl 4.5, CaCl2 2, MgCl2 1, HEPES 10, pH 7.4 with NaOH.
Chloride-free bath solution: Chloride salts in Bath Solution #1 are substituted with gluconate salts.
NIH3T3 mouse fibroblasts stably expressing ΔF508-CFTR are used for optical measurements of membrane potential. The cells are maintained at 37° C. in 5% CO2 and 90% humidity in Dulbecco's modified Eagle's medium supplemented with 2 mM glutamine, 10% fetal bovine serum, 1×NEAA, β-ME, 1×pen/strep, and 25 mM HEPES in 175 cm^2 culture flasks. For all optical assays, the cells were seeded at ˜20,000/well in 384-well matrigel-coated plates and cultured for 2 hrs at 37° C. before culturing at 27° C. for 24 hrs. for the potentiator assay. For the correction assays, the cells are cultured at 27° C. or 37° C. with and without compounds for 16-24 hours.
Take `COc1ccccc1C(c1ccc(NC(=O)C2(c3ccc4c(c3)OCO4)CC2)nc1)N1CC(C)OC(C)C1` (centres unmarked) [Compound 23]: the Emax was greater than 100%. Regarding `COc1ccccc1C(OCCO)c1ccc(NC(=O)C2(c3ccc4c(c3)OCO4)CC2)nc1` (centres unmarked) [Compound 57], the Emax is greater than 100%.

For the compound `COc1ccc(C2(C(=O)Nc3cccc(C)n3)CC2)cc1` [Compound 54], the Emax lay in the range of 25 to 100%.

Take `CC(C)Cc1cccc(NC(=O)C2(c3ccc4c(c3)OCO4)CC2)n1` [Compound 56]: the Emax is greater than 100%. As for `COc1ccc(Cc2cccc(NC(=O)C3(c4ccc5c(c4)OCO5)CC3)n2)cc1` [Compound 3], the figure is greater than 100%; as for `COc1cccc(C2(C(=O)Nc3ccc(Cc4ccccc4OC)cn3)CC2)c1` [Compound 34], 25 to 100%; as for `Cc1ccc(NC(=O)C2(c3ccc4c(c3)OC(F)(F)O4)CC2)nc1` [Compound 40], greater than 100%. Under `COc1ccccc1C(=O)c1ccc(NC(=O)C2(c3ccc4c(c3)OCO4)CC2)nc1` [Compound 27] stands greater than 100%.

Turning to `COc1ccccc1C(=O)c1ccc(NC(=O)C2(c3ccc4c(c3)OC(F)(F)O4)CC2)nc1` [Compound 68], the Emax was greater than 100%. Take `O=C(Nc1ccc(Cc2c(Cl)cccc2Cl)cn1)C1(c2ccc3c(c2)OCO3)CC1` [Compound 24]: the Emax was greater than 100%. On to `CCc1cccc(NC(=O)C2(c3ccccc3)CC2)n1` [Compound 61], for which the Emax was in the range of 25 to 100%. Under `COc1ccccc1C(OCCCO)c1ccc(NC(=O)C2(c3ccc4c(c3)OCO4)CC2)nc1` (centres unmarked) [Compound 66] stands greater than 100%; under `CCc1ccc(C)nc1NC(=O)C1(c2ccc3c(c2)OCO3)CC1` [Compound 43], 25 to 100%.

Turning to `NC(=O)c1ccc(NC(=O)C2(c3ccc4c(c3)OCO4)CC2)nc1` [Compound 6], the Emax lay in the range of 25 to 100%. As for `COc1ccc(C2(C(=O)Nc3ccc(C(=O)c4ccccc4OC)cn3)CC2)cc1` [Compound 28], the figure is greater than 100%; as for `CCN(CC)C(c1ccc(NC(=O)C2(c3ccc4c(c3)OCO4)CC2)nc1)c1ccccc1OC` (centres unmarked) [Compound 7], greater than 100%. Under `N#Cc1ccc(NC(=O)C2(c3ccc4c(c3)OCO4)CC2)nc1` [Compound 65] stands 25 to 100%. With `COc1ccc(Cc2ccc(NC(=O)C3(c4ccc5c(c4)OCO5)CC3)nc2)cc1` [Compound 60], the Emax is greater than 100%.

As to `Cc1ccc(NC(=O)C2(c3ccc4c(c3)OCO4)CC2)nc1` [Compound 42], the Emax was greater than 100%.

As for `O=C(Nc1ccc(Cc2ccccc2)cn1)C1(c2ccc3c(c2)OCO3)CC1` [Compound 63], the Emax is greater than 100%. As for `COc1ccccc1C(OCCN1CCCCC1)c1ccc(NC(=O)C2(c3ccc4c(c3)OCO4)CC2)nc1` (centres unmarked) [Compound 71], the Emax was in the range of 25 to 100%.

Regarding `COc1ccccc1C(c1ccc(NC(=O)C2(c3ccc4c(c3)OCO4)CC2)nc1)N1CCN(CCO)CC1` (centres unmarked) [Compound 39], the Emax lay within 25 to 100%.

Take `COc1ccccc1Cc1ccc(NC(=O)C2(c3ccc(OC(F)(F)F)cc3)CC2)nc1` [Compound 4]: the Emax was greater than 100%. Under `COc1ccccc1Cc1ccc(NC(=O)C2(c3ccc(OC)c(OC)c3)CC2)nc1` [Compound 10] stands 25 to 100%.

Regarding `COc1ccc(C2(C(=O)Nc3ccccn3)CC2)cc1` [Compound 25], the Emax is 25 to 100%. `COc1ccccc1Nc1ccc(NC(=O)C2(c3ccc4c(c3)OCO4)CC2)nc1` [Compound 52]: the Emax was greater than 100%.

On to `COc1ccc(C2(C(=O)Nc3ccc(C(=O)c4ccccc4OC)cn3)CC2)cc1OC` [Compound 12], for which the Emax was in the range of 25 to 100%. Turning to `COc1ccccc1C(=O)c1ccc(NC(=O)C2(c3ccc(C)cc3)CC2)nc1` [Compound 70], the Emax is greater than 100%.

Consider `COc1ccccc1Cc1ccc(NC(=O)C2(c3ccc(C)cc3)CC2)nc1` [Compound 31], for which the Emax was in the range of 25 to 100%.

In the case of `O=C(Nc1ccc(C(F)(F)F)cn1)C1(c2ccc3c(c2)OCO3)CC1` [Compound 17], the Emax lay within 25 to 100%. Regarding `COc1ccccc1Cc1ccc(NC(=O)C2(c3ccc4c(c3)OCO4)CC2)nc1` [Compound 35], the Emax is greater than 100%. As for `COc1ccccc1C(=O)c1ccc(NC(=O)C2(c3ccc(SC)cc3)CC2)nc1` [Compound 37], the Emax was greater than 100%. `COc1ccccc1C(c1ccc(NC(=O)C2(c3ccc4c(c3)OCO4)CC2)nc1)N1CCCCC1` (centres unmarked) [Compound 32]: the Emax is greater than 100%.

Take `O=C(Nc1ncccc1OCc1ccccc1)C1(c2ccccc2)CC1` [Compound 41]: the Emax was 25 to 100%.

For `CCc1cccc(NC(=O)C2(c3ccc4c(c3)OCO4)CC2)n1` [Compound 26], the Emax was greater than 100%. For the compound `O=C(Nc1ncccc1OCc1ccccc1)C1(c2ccc3c(c2)OCO3)CC1` [Compound 48], the Emax fell in the range of 25 to 100%.

In the case of `O=C(Nc1ccc(CC2CCCCC2)cn1)C1(c2ccc3c(c2)OCO3)CC1` [Compound 16], the Emax was greater than 100%.

For `COc1ccccc1C(c1ccc(NC(=O)C2(c3ccc4c(c3)OCO4)CC2)nc1)N1CCCC1` (centres unmarked) [Compound 9], the Emax is greater than 100%. Under `CCc1cccc(NC(=O)C2(c3ccc(OC)cc3)CC2)n1` [Compound 19] stands 25 to 100%; under `COc1ccccc1C(c1ccc(NC(=O)C2(c3ccc4c(c3)OCO4)CC2)nc1)N1CC[C@@H](O)C1` (some centres unmarked) [Compound 55], greater than 100%; under `O=C(Nc1cccc(Cc2ccccc2Cl)n1)C1(c2ccc3c(c2)OCO3)CC1` [Compound 78], greater than 100%.

Consider `Cc1ccc(NC(=O)C2(c3ccc4c(c3)OC(F)(F)O4)CC2)nc1NCc1ccccc1` [Compound 73], for which the Emax is greater than 100%. Consider `CC(C)Cc1ccc(NC(=O)C2(c3ccc4c(c3)OCO4)CC2)nc1` [Compound 29], for which the Emax was greater than 100%. As for `COc1ccccc1C(=O)c1ccc(NC(=O)C2(c3ccc(OC(F)(F)F)cc3)CC2)nc1` [Compound 30], the figure is 25 to 100%; as for `COc1ccccc1Cc1ccc(NC(=O)C2(c3ccccc3OC)CC2)nc1` [Compound 13], 25 to 100%.

For the compound `COc1ccccc1C(=O)c1ccc(NC(=O)C2(c3ccc(Cl)cc3)CC2)nc1` [Compound 76], the Emax is greater than 100%. Under `COc1ccccc1C(OCCN(C(C)C)C(C)C)c1ccc(NC(=O)C2(c3ccc4c(c3)OCO4)CC2)nc1` (centres unmarked) [Compound 18] stands 25 to 100%.
